Measurements taken from the supplement of paper PMC10627819.

Legend:
[1] = tested on: B. subtilis 168; assay: Bliss interaction score (quartile over a dose matrix) (fitness difference); higher = more antagonism (negative = synergy)
Method in brief: (§1)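 Growth was read as OD595 when cultures entered stationary phase, and each value was divided by the plate's robust no-drug mean and capped at 1. This normalised ratio is the fitness value, and fitness for each single drug came from the combination data. The Bliss score subtracts the expected fitness, taken as the product, from the observed fitness and is given as quartiles across technical, biological and donor/recipient replicates.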

[2] = tested on: S. aureus Newman; assay: as above
Method in brief: as §1

[3] = tested on: S. aureus DSM 20231; assay: as above
Method in brief: as §1

[4] = tested on: S. pneumoniae D39V; assay: as above
Method in brief: as §1

[5] = tested on: S. aureus Newman; assay: fitness (endpoint OD595 vs no drug) (fraction); higher = more growth
Method in brief: (§2)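 Bacterial growth was followed in 384-well plates seeded at OD595 0.01, with 30 µl per well, or 55 µl for S. pneumoniae, in TSB, LB Lennox or CY at 37 °C. OD595 was read every 30 min for 14 h, and each reading had the first reading subtracted as background. Fitness is the background-corrected optical density at entry into stationary phase divided by the robust mean of the no-drug control wells. This ratio is capped at 1.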

[6] = tested on: B. subtilis 168; assay: as above
Method in brief: as §2

[7] = tested on: S. pneumoniae D39V; assay: as above
Method in brief: as §2
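For Bliss interaction score (quartile over a dose matrix) in this document: first quartile when negative (synergy) and third quartile when positive (antagonism).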

O=C(N[C@H](CO)[C@H](O)c1ccc([N+](=O)[O-])cc1)C(Cl)Cl [Chloramphenicol] + C/C(=C\C(=O)OCCCCCCCCC(=O)O)C[C@@H]1OC[C@H](C[C@@H]2O[C@H]2[C@@H](C)[C@H](C)O)[C@@H](O)[C@H]1O [Pseudomonic acid]
Conditions | Bliss interaction score
[1] | 0.0522
[2] | 0.0532
[3] | 0.0264
[4] | 0.172

fitness, [5], one replicate
Conditions | first compound 0.75 µg/mL | first compound 1.5 µg/mL | first compound 3 µg/mL
partner 0.0313 µg/mL | 0.0723 | 0.0644 | 0.0687
partner 0.0625 µg/mL | 0.0337 | 0.0381 | 0.0484
partner 0.125 µg/mL | 0.062 | 0.0655 | 0.0652

O=C(N[C@H](CO)[C@H](O)c1ccc([N+](=O)[O-])cc1)C(Cl)Cl [Chloramphenicol] + CN(C)c1cc(NC(=O)CNC(C)(C)C)c(O)c2c1C[C@H]1C[C@H]3[C@H](N(C)C)C(O)=C(C(N)=O)C(=O)[C@@]3(O)C(O)=C1C2=O [Tigecycline]
Conditions | Bliss interaction score
[1] | -0.0487
[2] | -0.0583
[3] | -0.0788
[4] | -0.114

fitness, [5]
Conditions | first compound 0.75 µg/mL | first compound 1.5 µg/mL | first compound 3 µg/mL
partner 0.039 µg/mL | 0.789 | 0.509 | 0.216
partner 0.078 µg/mL | 0.831 | 0.559 | 0.2
partner 0.156 µg/mL | 0.829 | 0.58 | 0.213

O=C(N[C@H](CO)[C@H](O)c1ccc([N+](=O)[O-])cc1)C(Cl)Cl [Chloramphenicol] + CN[C@@H]1[C@H](O[C@H]2[C@H](O[C@H]3[C@H](O)[C@@H](O)[C@H](N=C(N)N)[C@@H](O)[C@@H]3N=C(N)N)O[C@@H](C)[C@]2(O)C=O)O[C@@H](CO)[C@H](O)[C@H]1O [Streptomycin]
Conditions | Bliss interaction score
[1] | 0.144
[2] | -0.0754
[3] | 0.0438
[4] | -0.0647

fitness, [5]
Conditions | first compound 0.75 µg/mL | first compound 1.5 µg/mL | first compound 3 µg/mL
partner 1 µg/mL | 0.755 | 0.537 | 0.213
partner 2 µg/mL | – | 0.465 | 0.177
partner 4 µg/mL | – | – | 0.128

O=C(N[C@H](CO)[C@H](O)c1ccc([N+](=O)[O-])cc1)C(Cl)Cl [Chloramphenicol] + O=C(O)c1cn(C2CC2)c2cc(N3CCNCC3)c(F)cc2c1=O [Ciprofloxacin]
Conditions | Bliss interaction score
[1] | 0.161
[2] | 0.126
[3] | 0.0505
[4] | -0.0621

fitness, [5]
Conditions | first compound 0.75 µg/mL | first compound 1.5 µg/mL | first compound 3 µg/mL
partner 0.0375 µg/mL | 0.644 | 0.487 | 0.154
partner 0.075 µg/mL | 0.621 | 0.496 | 0.182
partner 0.15 µg/mL | 0.155 | 0.212 | –

CCC[C@@H]1C[C@@H](C(=O)N[C@@H]([C@H]2O[C@H](SC)[C@H](O)[C@@H](O)[C@H]2O)[C@H](C)Cl)N(C)C1 [Clindamycin] + C[C@H]1c2cccc(O)c2C(=O)C2=C(O)[C@]3(O)C(=O)C(C(N)=O)=C(O)[C@@H](N(C)C)[C@@H]3[C@@H](O)[C@@H]21 [Doxycycline]
Conditions | Bliss interaction score
[1] | -0.184
[2] | -0.135
[3] | -0.0562
[4] | -0.151

fitness, one replicate
Conditions | partner 0.003875 µg/mL | partner 0.00775 µg/mL | partner 0.02 µg/mL | partner 0.031 µg/mL | partner 0.04 µg/mL | partner 0.062 µg/mL | partner 0.08 µg/mL
[6], first compound 0.0039 µg/mL | – | – | 0.97 | – | 0.891 | – | 0.677
[6], first compound 0.0078 µg/mL | – | – | 0.831 | – | 0.781 | – | 0.515
[6], first compound 0.0156 µg/mL | – | – | 0.824 | – | 0.743 | – | 0.235
[7], first compound 0.015 µg/mL | 0.934 | 0.931 | – | 0.803 | – | 0.567 | –
[7], first compound 0.03 µg/mL | 0.778 | 0.777 | – | 0.588 | – | 0.359 | –
[7], first compound 0.06 µg/mL | 0.714 | 0.743 | – | 0.405 | – | 0.163 | –

Conditions | fitness
[6], first compound 0.0625 µg/mL, partner 0.04 µg/mL | 0.406
[6], first compound 0.0625 µg/mL, partner 0.08 µg/mL | 0.0499
[6], first compound 0.125 µg/mL, partner 0.02 µg/mL | 0.389
[6], first compound 0.125 µg/mL, partner 0.04 µg/mL | 0.164
[6], first compound 0.125 µg/mL, partner 0.08 µg/mL | 0.0428
[6], first compound 0.25 µg/mL, partner 0.02 µg/mL | 0.293
[6], first compound 0.25 µg/mL, partner 0.04 µg/mL | 0.11
[6], first compound 0.25 µg/mL, partner 0.08 µg/mL | 0.0404
[7], first compound 0.0125 µg/mL, partner 0.0155 µg/mL | 0.451
[7], first compound 0.0125 µg/mL, partner 0.031 µg/mL | 0.35
[7], first compound 0.0125 µg/mL, partner 0.062 µg/mL | 0.114
[7], first compound 0.015 µg/mL, partner 0.0155 µg/mL | 0.876
[7], first compound 0.025 µg/mL, partner 0.0155 µg/mL | 0.28
[7], first compound 0.025 µg/mL, partner 0.031 µg/mL | 0.245
[7], first compound 0.025 µg/mL, partner 0.062 µg/mL | 0.078
[7], first compound 0.03 µg/mL, partner 0.0155 µg/mL | 0.745
[7], first compound 0.05 µg/mL, partner 0.0155 µg/mL | 0.0637
[7], first compound 0.05 µg/mL, partner 0.031 µg/mL | 0.0376
[7], first compound 0.05 µg/mL, partner 0.062 µg/mL | 0.073
[7], first compound 0.06 µg/mL, partner 0.0155 µg/mL | 0.577

O=C(O[C@@H]1Cc2c(O)cc(O)cc2O[C@@H]1c1cc(O)c(O)c(O)c1)c1cc(O)c(O)c(O)c1 [EGCG] + CCC(C)C1C(=O)NC(=C)C(=O)NC(C(=O)NC(CSCC(C(=O)N1)NC(=O)/C(=C/C)/NC(=O)C(C(C)CC)N)C(=O)NC2C(SCC(NC(=O)CNC(=O)C3CCCN3C2=O)C(=O)NC(CCCCN)C(=O)NC4C(SCC(NC(=O)CNC(=O)C(NC(=O)C(NC(=O)C(NC(=O)CNC4=O)C)CC(C)C)CCSC)C(=O)NC(CC(=O)N)C(=O)NC(CCSC)C(=O)NC(CCCCN)C(=O)NC5C(SCC6C(=O)NC(C(=O)NC(CSC(C(C(=O)N6)NC(=O)C(NC5=O)C)C)C(=O)NC(CO)C(=O)NC(C(C)CC)C(=O)NC(CC7=CN=CN7)C(=O)NC(C(C)C)C(=O)NC(=C)C(=O)NC(CCCCN)C(=O)O)CC8=CN=CN8)C)C)C)CC(C)C [Nisin]
main component drawn
Conditions | Bliss interaction score
[1] | -0.0674
[2] | 0.134
[3] | 0.165
[4] | 0.11

fitness, main component drawn
Conditions | first compound 6.25 µg/mL | first compound 12.5 µg/mL | first compound 25 µg/mL | first compound 50 µg/mL
[6], partner 0.5 µg/mL | 0.853 | 0.761 | – | –
[6], partner 1 µg/mL | 0.813 | 0.619 | – | –
[6], partner 2 µg/mL | 0.432 | 0.308 | 0.21 | –
[7], partner 0.4275 µg/mL | – | 0.965 | 0.967 | 0.982
[7], partner 0.855 µg/mL | – | 0.989 | ≥ 1 | ≥ 1
[7], partner 1.6 µg/mL | – | 0.0156 | 0.0307 | –
[7], partner 1.71 µg/mL | – | 0.105 | 0.131 | 0.244
[7], partner 3.2 µg/mL | – | 0.0612 | – | –
[7], partner 6.4 µg/mL | – | 0.08 | 0.046 | 0.0006

fitness, [6], one replicate, main component drawn
Conditions | partner 1.25 µg/mL | partner 1.6 µg/mL | partner 2.5 µg/mL | partner 3.2 µg/mL | partner 4 µg/mL | partner 5 µg/mL | partner 6.4 µg/mL | partner 8 µg/mL | partner 16 µg/mL
first compound 6.25 µg/mL | ≥ 1 | 0.616 | 0.682 | 0.0933 | 0.0068 | 0.154 | 0.0135 | 0.069 | 0.0181
first compound 12.5 µg/mL | 0.625 | 0.199 | 0.282 | 0.0301 | 0.0461 | 0.0396 | 0.0233 | 0.0351 | 0.0262
first compound 25 µg/mL | 0.247 | 0.0657 | 0.0742 | 0.0436 | 0.0163 | 0.0343 | 0.0151 | 0.044 | 0.0094

O=C(O[C@@H]1Cc2c(O)cc(O)cc2O[C@@H]1c1cc(O)c(O)c(O)c1)c1cc(O)c(O)c(O)c1 [EGCG] + CN(C)C(=O)C(CCN1CCC(O)(c2ccc(Cl)cc2)CC1)(c1ccccc1)c1ccccc1 [Loperamide]
Conditions | Bliss interaction score
[1] | -0.097
[2] | -0.0758
[3] | 0.183
[4] | 0.0701

fitness
Conditions | first compound 6.25 µg/mL | first compound 12.5 µg/mL | first compound 25 µg/mL | first compound 50 µg/mL
[6], partner 25 µg/mL | – | – | 0.0734 | –
[6], partner 50 µg/mL | – | 0.0521 | 0.0237 | –
[6], partner 100 µg/mL | 0.0302 | 0.0337 | 0.0599 | –
[7], partner 17.14 µg/mL | – | 0.91 | 0.921 | 0.965
[7], partner 20 µg/mL | – | 0.988 | ≥ 1 | 0.991
[7], partner 34.28 µg/mL | – | 0.895 | 0.982 | 0.992
[7], partner 40 µg/mL | – | 0.984 | ≥ 1 | ≥ 1

[7], partner 68.57 µg/mL, one replicate
Conditions | fitness
first compound 12.5 µg/mL | 0.491
first compound 25 µg/mL | 0.958
first compound 50 µg/mL | 0.891

O=C(O[C@@H]1Cc2c(O)cc(O)cc2O[C@@H]1c1cc(O)c(O)c(O)c1)c1cc(O)c(O)c(O)c1 [EGCG] + C[C@H]1COc2c(N3CCN(C)CC3)c(F)cc3c(=O)c(C(=O)O)cn1c23 [Levofloxacin]
Conditions | Bliss interaction score
[1] | -0.0322
[2] | -0.0447
[3] | -0.055
[4] | -0.092

fitness, [6], one replicate
Conditions | first compound 6.25 µg/mL | first compound 12.5 µg/mL | first compound 25 µg/mL
partner 0.001 µg/mL | 0.993 | 0.712 | 0.276
partner 0.0078 µg/mL | 0.88 | 0.788 | 0.668

fitness
Conditions | first compound 6.25 µg/mL | first compound 12.5 µg/mL | first compound 25 µg/mL | first compound 50 µg/mL
[6], partner 0.002 µg/mL | 0.941 | – | – | –
[6], partner 0.0039 µg/mL | 0.89 | 0.629 | – | –
[6], partner 0.0312 µg/mL | 0.05 | 0.038 | 0.0206 | –
[6], partner 0.0625 µg/mL | 0.0332 | 0.0286 | 0.0506 | –
[6], partner 0.125 µg/mL | 0.058 | 0.0419 | 0.0505 | –
[7], partner 0.1725 µg/mL | – | 0.876 | 0.815 | 0.868
[7], partner 0.2 µg/mL | – | 0.925 | 0.904 | 0.845
[7], partner 0.345 µg/mL | – | 0.804 | 0.733 | 0.897
[7], partner 0.4 µg/mL | – | 0.832 | 0.826 | 0.671
[7], partner 0.69 µg/mL | – | – | 0.777 | –
[7], partner 0.8 µg/mL | – | 0.333 | 0.262 | 0.337
